Data as given in patent US10689354B2, “Aminoazole derivative” (Teijin Pharma Limited, priority 2015, dated 2020).

Tests used:
[1] = molecular target: T1, androgen receptor (AR-LBD) (Rattus norvegicus, UniProt P15207); assay: Evaluation of androgen receptor affinity (PolarScreen Androgen Receptor Competitor Assay Kit, Red; fluorescence polarization); conditions: 22° C. for 5 hours, relative to binding rate of 1 μM DHT, read-out: AR affinity (pEC50) (converted)
T1 construct: 5 μL of 2×AR-LBD/Fluoromone AL Red Complex contained in the kit; purchased Invitrogen
T1 sequence (P15207 651-882 limits assumed): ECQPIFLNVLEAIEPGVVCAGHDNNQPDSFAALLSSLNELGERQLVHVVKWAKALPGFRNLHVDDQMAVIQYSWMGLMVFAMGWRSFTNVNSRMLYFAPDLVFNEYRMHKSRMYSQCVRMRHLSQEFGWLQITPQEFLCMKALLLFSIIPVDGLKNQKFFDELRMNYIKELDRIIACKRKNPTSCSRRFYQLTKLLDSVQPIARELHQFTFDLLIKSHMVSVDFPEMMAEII
How it was run: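 Fluorescence polarization read-out after 5 h at 22° C of compound with a red-fluorophore-labelled AR-LBD complex. Displacement is scaled against 1 μM DHT, and the log reciprocal of the concentration reaching half that effect gives pEC50 via four-parameter curve fitting.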

human androgen receptor = molecular target: T2, human androgen receptor (Homo sapiens, UniProt P10275); assay: Reporter assay of an androgen receptor responsive sequence (luciferase, transiently transfected HEK293 cells); type: cell-based; conditions: 24 hours incubation, relative to activity of 100 nM DHT, read-out: AR transcriptive activity (pEC50) (converted)
T2 construct: expressed in transfected cells; host or cells: HEK293
T2 sequence (P10275 1-920): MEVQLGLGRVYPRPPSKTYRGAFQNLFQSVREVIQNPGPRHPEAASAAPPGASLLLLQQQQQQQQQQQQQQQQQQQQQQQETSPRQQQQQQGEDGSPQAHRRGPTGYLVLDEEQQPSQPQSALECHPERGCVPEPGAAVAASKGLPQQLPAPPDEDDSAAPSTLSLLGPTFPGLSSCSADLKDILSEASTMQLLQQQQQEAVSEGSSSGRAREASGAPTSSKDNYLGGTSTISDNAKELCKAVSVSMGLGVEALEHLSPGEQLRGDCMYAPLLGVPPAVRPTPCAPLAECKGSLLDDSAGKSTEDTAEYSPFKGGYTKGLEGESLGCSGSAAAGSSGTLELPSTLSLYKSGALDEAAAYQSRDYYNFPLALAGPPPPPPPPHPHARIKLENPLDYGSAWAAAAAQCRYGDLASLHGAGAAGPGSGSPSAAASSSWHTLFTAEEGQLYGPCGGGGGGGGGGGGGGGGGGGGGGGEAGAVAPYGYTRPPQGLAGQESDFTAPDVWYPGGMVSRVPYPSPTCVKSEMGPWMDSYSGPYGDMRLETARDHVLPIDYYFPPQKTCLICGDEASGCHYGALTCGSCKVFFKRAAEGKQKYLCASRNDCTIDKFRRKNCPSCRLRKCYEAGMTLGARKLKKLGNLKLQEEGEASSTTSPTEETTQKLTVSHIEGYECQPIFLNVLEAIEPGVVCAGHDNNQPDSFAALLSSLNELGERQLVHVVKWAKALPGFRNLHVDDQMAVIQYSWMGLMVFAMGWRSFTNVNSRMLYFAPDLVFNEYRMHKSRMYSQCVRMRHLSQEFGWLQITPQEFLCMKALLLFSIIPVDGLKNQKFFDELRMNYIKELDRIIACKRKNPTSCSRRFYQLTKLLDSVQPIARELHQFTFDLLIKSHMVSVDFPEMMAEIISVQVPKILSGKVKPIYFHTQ
Protocol: Reporter Assay of an Androgen Receptor Responsive Sequence
To examine the agonist activity of compounds for androgen, a reporter assay using an androgen receptor responsive sequence was conducted.
Using Lipofectamine 2000 (Invitrogen), a plasmid mixture (pGL4-ARE (200 ng/well), pcDNA3-hAR (20 ng/well), pRL-TK (Promega) (150 ng/well)) was transiently transfected into HEK293 cells. The contents of the plasmid (mixture) are as follows:
pGL4-ARE is a reporter plasmid containing firefly luciferase sequence under the control of androgen receptor responsive sequence; pcDNA3-hAR is a plasmid containing full-length sequence of human androgen receptor under the constant control of CMV promoter; pRL-TK is a plasmid containing Renilla Luciferase sequence under the control of herpes simplex virus thymidine kinase and used as an internal standard for evaluations of transfection efficiency and compound toxicity.
After the incubation of Lipofectamine 2000 and the plasmid mixture in Opti-MEM for 20 minutes, the mixture was mixed with a cell suspension prepared with Opti-MEM in the similar way, and the cell suspension was plated to a 96-well plate at 20000 cells/well. The transfection was conducted by incubating the plates under the condition of 5% CO2 at 37° C. for 3 hours. Three hours after the transfection, the culture medium was removed and a compound solution prepared by DMEM supplemented with 5% FBS and treated with charcoal was added, and the mixture was incubated under the condition of 5% CO2 at 37° C. for 24 hours. After the incubation with the compound, luciferase activities were measured with a luminometer using Dual-Glo™ Luciferase Assay System (Promega). The measurement of the luciferase activities was performed in accordance with the protocol recommended by Promega. The activity of the compound was determined by comparing to the activity of 100 nM of DHT, and quantified the logarithm value (pEC50) of reciprocal value of the effective concentration of the compound which is equal to 50% of the activity value by applying a 4 parameter goodness-of-fit calculation.

Compound: CS(=O)(=O)NC(=O)c1nc(N(Cc2ccc(OC(F)F)cc2)c2ccc(C#N)cc2)sc1Cl [Example 277, 5-chloro-2-[4-cyano-N-[[4-(difluoromethoxy)phenyl]methyl]anilino]-N-methylsulfonyl-thiazole-4-carboxamide]
- EC50 [1]: 63.1 nM
- EC50 (human androgen receptor): 50.1 nM

Compound: CNC(=O)c1ccc(CCN(Cc2ccccc2)c2nc(C(=O)NS(C)(=O)=O)c(C)s2)cc1 [Compound 738, 2-[benzyl-[2-[4-(methylcarbamoyl)phenyl]ethyl]amino]-5-methyl-N-methylsulfonyl-thiazole-4-carboxamide]
- EC50 [1]: 501 nM
- EC50 (human androgen receptor): 6310 nM

Compound: CS(=O)(=O)NC(=O)c1nc(N(Cc2ccc(OC(F)F)cc2)c2ccc(C#N)cc2)sc1C1CC1 [Compound 662, 2-[4-cyano-N-[[4-(difluoromethoxy)phenyl]methyl]anilino]-5-cyclopropyl-N-methylsulfonyl-thiazole-4-carboxamide]
- EC50 [1]: 20 nM
- EC50 (human androgen receptor): 5010 nM

Compound: Cc1sc(N(Cc2cccc(Cl)c2)c2ccc(C#N)cc2)nc1C(=O)NS(C)(=O)=O [Compound 18, 2-[N-[(3-chlorophenyl)methyl]-4-cyano-anilino]-5-methyl-N-methylsulfonyl-thiazole-4-carboxamide]
- EC50 [1]: 25.1 nM
- EC50 (human androgen receptor): 50.1 nM

Compound: Cc1sc(N(Cc2ccc(OC(F)(F)F)cc2)c2ccc(C#N)cc2)nc1C(=O)NS(=O)(=O)CS(C)(=O)=O [Example 198, 2-[4-cyano-N-[[4-(trifluoromethoxy)phenyl]methyl]anilino]-5-methyl-N-(methylsulfonylmethylsulfonyl)thiazole-4-carboxamide]
- EC50 [1]: 39.8 nM
- EC50 (human androgen receptor): > 10000 nM

Compound: Cc1sc(N(CCc2ccc3ccccc3c2)c2ccc(C#N)cc2)nc1C(=O)NS(C)(=O)=O [Compound 88, 2-[4-cyano-N-[2-(2-naphthyl)ethyl]anilino]-5-methyl-N-methylsulfonyl-thiazole-4-carboxamide]
- EC50 [1]: 316 nM
- EC50 (human androgen receptor): > 10000 nM

Compound: Cc1sc(N(Cc2cccc(=O)[nH]2)c2ccc(C#N)cc2)nc1C(=O)NS(C)(=O)=O [Compound 493, 2-[4-cyano-N-[(6-oxo-1H-pyridin-2-yl)methyl]anilino]-5-methyl-N-methylsulfonyl-thiazole-4-carboxamide]
- EC50 [1]: > 2000 nM
- EC50 (human androgen receptor): > 10000 nM

Compound: COCCCS(=O)(=O)NC(=O)c1nc(N(Cc2ccc3ncsc3c2)c2ccc(C#N)cc2)sc1C [Example 195, 2-[N-(1,3-benzothiazol-6-ylmethyl)-4-cyano-anilino]-N-(3-methoxypropylsulfonyl)-5-methyl-thiazole-4-carboxamide]
- EC50 [1]: 158 nM
- EC50 (human androgen receptor): 126 nM

Compound: CCc1oc(N(Cc2ccc(OC(F)F)cc2)c2ccc(C#N)cc2)nc1C(=O)NS(C)(=O)=O [Compound 634, 2-[4-cyano-N-[[4-(difluoromethoxy)phenyl]methyl]anilino]-5-ethyl-N-methylsulfonyl-oxazole-4-carboxamide]
- EC50 [1]: 39.8 nM
- EC50 (human androgen receptor): 398 nM

Compound: Cc1sc(N(CCc2cccs2)c2ccc(C#N)cc2)nc1C(=O)NS(C)(=O)=O [Compound 131, 2-[4-cyano-N-[2-(2-thienyl)ethyl]anilino]-5-methyl-N-methylsulfonyl-thiazole-4-carboxamide]
- EC50 [1]: 251 nM
- EC50 (human androgen receptor): 1000 nM

Compound: CS(=O)(=O)NC(=O)c1nc(N(Cc2ccccc2)c2ccc(C#N)cc2)sc1C1CC1 [Compound 660, 2-(N-benzyl-4-cyano-anilino)-5-cyclopropyl-N-methylsulfonyl-thiazole-4-carboxamide]
- EC50 [1]: 79.4 nM
- EC50 (human androgen receptor): > 10000 nM

Compound: Cc1sc(N(Cc2ccc(Br)cc2F)c2ccc(C#N)cc2)nc1C(=O)NS(C)(=O)=O [Example 185, 2-[N-[(4-bromo-2-fluoro-phenyl)methyl]-4-cyano-anilino]-5-methyl-N-methylsulfonyl-thiazole-4-carboxamide]
- EC50 [1]: 39.8 nM
- EC50 (human androgen receptor): 63.1 nM

Compound: CCc1oc(N(Cc2ccccc2OC(F)F)c2ccc(C#N)cc2)nc1C(=O)NS(C)(=O)=O [Compound 637, 2-[4-cyano-N-[[2-(difluoromethoxy)phenyl]methyl]anilino]-5-ethyl-N-methylsulfonyl-oxazole-4-carboxamide]
- EC50 [1]: 158 nM
- EC50 (human androgen receptor): > 10000 nM

Compound: CCc1sc(N(Cc2ccccc2)c2ccc(C#N)cc2)nc1C(=O)NS(C)(=O)=O [Compound 599, 2-(N-benzyl-4-cyano-anilino)-5-ethyl-N-methylsulfonyl-thiazole-4-carboxamide]
- EC50 [1]: 63.1 nM
- EC50 (human androgen receptor): 79.4 nM

Compound: Cc1sc(N(CCc2ccc(C#N)cc2)Cc2ccc(Cl)cc2)nc1C(=O)NS(=O)(=O)Cc1ccncc1 [Compound 741, 2-[(4-chlorophenyl)methyl-[2-(4-cyanophenyl)ethyl]amino]-5-methyl-N-(4-pyridylmethylsulfonyl)thiazole-4-carboxamide]
- EC50 [1]: 25.1 nM
- EC50 (human androgen receptor): 158 nM

Compound: COc1cccc(CCN(Cc2ccccc2)c2nc(C(=O)NS(C)(=O)=O)c(C)s2)c1 [Example 308, 2-[benzyl-[2-(3-methoxyphenyl)ethyl]amino]-5-methyl-N-methylsulfonyl-thiazole-4-carboxamide]
- EC50 [1]: 79.4 nM
- EC50 (human androgen receptor): 5010 nM

Compound: Cc1sc(N(CCC2CCCCC2)Cc2ccc(Cl)cc2)nc1C(=O)NS(=O)(=O)C1CC1 [Compound 730, 2-[(4-chlorophenyl)methyl-(2-cyclohexylethyl)amino]-N-cyclopropylsulfonyl-5-methyl-thiazole-4-carboxamide]
- EC50 (human androgen receptor): > 10000 nM

Compound: Cc1sc(N(C)c2ccc(C#N)cc2)nc1C(=O)NS(C)(=O)=O [Compound 60, 2-(4-cyano-N-methyl-anilino)-5-methyl-N-methylsulfonyl-thiazole-4-carboxamide]
- EC50 [1]: > 2000 nM

Compound: Cc1ccccc1CN(c1ccc(C#N)cc1)c1nc(C(=O)NS(C)(=O)=O)c(Br)s1 [Example 264, 5-bromo-2-[4-cyano-N-(o-tolylmethyl)anilino]-N-methylsulfonyl-thiazole-4-carboxamide]
- EC50 [1]: 158 nM

Compound: Cc1sc(N(Cc2ccccc2)c2ccccn2)nc1C(=O)NS(C)(=O)=O [Compound 408, 2-[benzyl(2-pyridyl)amino]-5-methyl-N-methylsulfonyl-thiazole-4-carboxamide]
- EC50 [1]: > 2000 nM

Compound: Cc1sc(N(Cc2nccs2)c2ccc(C#N)cc2)nc1C(=O)NS(C)(=O)=O [Compound 392, 2-[4-cyano-N-(thiazol-2-ylmethyl)anilino]-5-methyl-N-methylsulfonyl-thiazole-4-carboxamide]
- EC50 [1]: > 2000 nM

Compound: COc1cccc(CN(c2ccc(C#N)cc2)c2nc(C(=O)NS(C)(=O)=O)c(Cl)s2)c1 [Example 260, 5-chloro-2-[4-cyano-N-[(3-methoxyphenyl)methyl]anilino]-N-methylsulfonyl-thiazole-4-carboxamide]
- EC50 [1]: 39.8 nM
